A short description of data set [1]: Pharmacokinetics in OVX rats. The data set is classed as in vivo. To be noted: female, Crl:CD(SD), rat, plasma, iv.
The target in a further data set is T1, hPTHR1 (Homo sapiens, UniProt Q03431).
T1 construct: similar to that of cells expressing full-length hPTHR1; expressed in transfected cells; host or cells: COS-7 (transient, FuGENE HD)
T1 sequence (Q03431 27-593 E93Y/D94P/K95Y/E96D/A97V/T99D/G100Y/S101A): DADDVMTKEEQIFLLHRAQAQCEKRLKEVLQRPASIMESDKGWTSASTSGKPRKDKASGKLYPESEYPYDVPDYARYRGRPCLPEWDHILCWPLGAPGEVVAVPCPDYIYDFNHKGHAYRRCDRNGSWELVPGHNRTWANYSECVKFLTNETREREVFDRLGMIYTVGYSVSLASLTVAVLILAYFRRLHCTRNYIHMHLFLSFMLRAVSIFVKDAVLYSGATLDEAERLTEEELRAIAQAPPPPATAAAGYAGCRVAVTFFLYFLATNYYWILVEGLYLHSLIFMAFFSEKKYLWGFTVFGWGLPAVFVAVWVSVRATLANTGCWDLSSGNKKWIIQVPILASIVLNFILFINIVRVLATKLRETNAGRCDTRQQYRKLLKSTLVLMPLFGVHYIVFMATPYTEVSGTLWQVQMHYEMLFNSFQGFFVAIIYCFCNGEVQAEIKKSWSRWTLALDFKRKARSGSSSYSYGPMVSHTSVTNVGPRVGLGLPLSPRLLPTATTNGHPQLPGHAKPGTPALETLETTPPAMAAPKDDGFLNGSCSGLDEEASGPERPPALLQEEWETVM
The data set can be described thus: Phospholipase C activity assay ([3H]-inositol phosphate) in COS-7 cells expressing hPTHR1. The data set is classed as cell-based. The following applies: COS-7 cells expressing hPTHR1, 40 min; concentration that achieves the EC50 for hPTH(1–34). As for the experimental part: COS-7 cells (ATCC) were seeded into a 96-well flat-bottomed plate (1.4 × 10^4 cells per 100 μl per well) and incubated overnight. The next day, the COS-7 cells were transfected by adding 10 μl of a mixture of hPTHR1 plasmid or empty vector (0.1 μg per well), FuGENE HD Transfection Reagent (0.4 μl per well, Promega), and Opti-MEM I Reduced Serum Medium (10 μl per well, Life Technologies) to each well. On the second day after the cells were seeded into the plate, the culture medium in the wells was discarded, and 100 μl of ^3H-myoinositol/0.1% BSA/DMEM adjusted to 111 kBq ml^−1 (PerkinElmer, Inc.) was added to each well. […] After that, the ^3H radioactivity was measured using a liquid scintillation analyzer. EC50 values were determined from three independent experiments in […] by a non-linear regression Emax model (JMP ver.9.0.2, SAS Institute). […] The geometric means of the EC50 values obtained in three experiments in duplicate were calculated using Microsoft Office Excel 2007.

Where two headings read alike, the source gives them in different places.

Regarding `Cc1cc(N2C(=O)NC(=O)C2(C)C)cc(C)c1CCS(=O)(=O)N1CCC2(CC1)N=C(c1ccc(OC(F)(F)F)cc1)NC2=O` [PCO371, 1-{3,5-dimethyl-4-[2-({4-oxo-2-[4-(trifluoromethoxy)phenyl]-1,3,8-triazaspiro[4.5]dec-1-en-8-yl}sulfonyl)ethyl]phenyl}-5,5-dimethylimidazolidine-2,4-dione], the concentration at 2 min is 17.5 µg/mL in data set [1] (i.v. 3 mg kg-1, read-out: C2min (concentration at 2 min after administration)) and 50.1 µg/mL in data set [1] (i.v. 10 mg kg-1, read-out: C2min (concentration at 2 min after administration)). On hPTHR1, this compound showed a concentration giving a half-maximal response (EC50) of 17 µM.
